Experimental data as given in US12599560B2, “Lipids and lipid nanoparticle formulations” (Longuide Biopharma Corporation, priority 2023, dated 2026).

How the values were obtained:
[1] = Particle size and PDI by dynamic light scattering; type: physicochemical
Procedure, shortened: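 Lipid nanoparticle solution (about 0.04 mg/mL mRNA) diluted in ultrapure water and particle size measured by dynamic light scattering on a Malvern instrument. Sample then further diluted with water for potential measurement.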

mice = assay: In vivo delivery of FLuc-mRNA lipid nanoparticle preparations in mice (IVIS imaging); parameters: In vivo IVIS / In vivo IVIS (liver) / In vivo IVIS (spleen): unit not given here; settings: for in vivo delivery efficiency as compared to the benchmark compound SM102: certain formulations
Procedure, shortened: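 FLuc-mRNA LNPs given intramuscularly into thigh rectus femoris or intravenously via tail vein, about 75 μL per mouse, 3 mice. D-Luciferin (200 μL, 15 mg/mL) injected i.p. 10–15 min before IVIS imaging at set times after dosing.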

Delta-S protein = assay: In vivo immunization with Delta Spike mRNA LNP, serum ELISA for specific antibody; parameters: species or system mice; settings: serum after second administration
Procedure: Lipid nanoparticles encapsulating the nucleic acid drugs were prepared according to step 2. The mRNA was replaced with Delta Spike full length mRNA (Shanghai Zhaowei Science and Technology Development Co., Ltd.) and then administered to the mice at a dose of 5 μg per mouse, and on the 14th day after the first immunization, the whole blood of the mice was collected by canthus sampling, and the drug administration was repeated for the second immunization. On the 14th day after the second immunization, the whole blood was collected from mice by canthus sampling. The whole blood was centrifuged at 5000 rcf for 5 mn, and the supernatant was centrifuged at 10000 rcf for 5 min to obtain the serum, which was aliquated into serial tubes and stored in the refrigerator at −20° C.
• 9.2.1 Coating: Add 100 μL of 0.2 μg/100 μL Delta-S protein (Novoprotein Scientific Inc.) dilution solution to each well, and leave it in the refrigerator at 4° C. overnight. • 9.2.2 Washing: Add 200 μL of PBST (PBS buffer solution containing 0.05% Tween-20 at pH 7.4) to each well and wash three times. • 9.2.3 Blocking: Add 200 μL of 5% (w/v) BSA-PBS solution (BSA bovine serum albumin, Bioss Biotechnology Co., Ltd.) to each well, and shake for 2 h at 50 rcf at room temperature using a shaker. • 9.2.4 Washing: Add 200 μL of PBST to each well to wash once. • 9.2.5 Adding samples: Add 100 μL of serum diluted 200 times with PBS (0.5 μL of serum) to each well (for the ELISA titer assay, serum diluted 200 times, 800 times, 3200 times, 12800 times, 51200 times, 204800 times), and shake at room temperature for 2 h at 50 rcf using a shaker. • 9.2.6 Washing: Add 200 μL of PBST into each well for three times. • 9.2.7 Adding detection antibody: Add 100 μL of HRP-labeled goat anti-mouse IgG detection antibody (0.1 μL of antibody master batch) (Sangon Biotech (Shanghai) Co., Ltd.) diluted 1000-fold into each well, and shake at 50 rcf for 1 h at room temperature using a shaker. • 9.2.8 Washing: Add 200 μL of PBST to each well and wash three times. • 9.2.9 Adding TMB (Beijing Solarbio Science & Technology Co., Ltd.): Add 50 μL of TMB mixture with the volume ratio of liquid A:liquid B of 1:1 to each well, and react for 5 mn (ELISA of blood sample I), 7 min 58 sec (ELISA of blood sample II), and react for about 5 min (ELISA titer of blood sample II). • 9.2.10 Adding phosphate (Aladdin Reagent (Shanghai) Co., Ltd.): add 50 μL of 1 mol/L phosphate per well to terminate the reaction. • 9.2.11 Detection: Use multi-function plate reader for detection. 9.3. Neutralization Antibody Levels Detected by Pseudovirus Neutralization Assay • 9.3.1 Cell seeding: 293T-ACE2 cells (Fubio (Suzhou) Biomedical Technology Co., Ltd.) were inoculated with 1×10^5 cells in each well of a 48-well plate at a concentration of 1×10^5 cells in 300 μL of DMEM medium (containing 10% heat-inactivated FBS without bispecific antibody), the 48-well plate was labeled with information such as “number, cell type, number of generations, medium type, date and name”, and then the cells were cultured in a cell culture incubator at 37° C. with 5% CO2 for 18 hours. • 9.3.2 Before the pseudovirus transfection operation, prepare an ice box, re-dissolve the serum to be used on ice, thaw on ice the virus from the −25° C. refrigerator. After thawing, the serum and pseudovirus were flicked homogenously and centrifuged with a palm centrifuge. • 9.3.3 Examine the neutralization antibody with serum diluted in different ratios: use complete culture medium to dilute the pseudovirus (Fubio (Suzhou) Biomedical Technology Co., Ltd.) and mouse serum respectively, mix them well, and then dilute them 40-fold, 100-fold, 250-fold and 625-fold according to the final concentration of the cells of incubation. […]

[2] = Table 2, LNP formulation with mRNA
[3] = Table 2, IV, whole body scan, molar ratio DMG-PEG2000:DSPC:Chol:Lipid and N/P
[4] = Table 4, molar ratio 1.40:11.15:38.95:48.50, N/P 40, IM formulation
[5] = Table 4, molar ratio 1.50:16.00:34.00:48.50, N/P 55, IV formulation

| Structure (SMILES) | Particle size (nm) [1, 2] [nm] | PDI ([1]; Table 2, polydispersity value) | In vivo IVIS (mice; Table 2, IM, whole body scan) | In vivo IVIS (mice; [3]) | in vivo delivery efficiency as compared to the benchmark compound SM102 (mice; Table 2) | OD 450 nm-630 nm (Delta-S protein; IM) | OD 450 nm-630 nm (Delta-S protein; IV) | further results |
| --- | --- | --- | --- | --- | --- | --- | --- | --- |
| CCCCCCC(CCCCCC)C(=O)OCCCCCCOC(=O)C(O)CN1CCN(CCN(CC(O)C(=O)OCCCCCCOC(=O)C(CCCCCC)CCCCCC)CC(O)C(=O)OCCCCCCOC(=O)C(CCCCCC)CCCCCC)CC1 (centres unmarked) [Compound L0187] | 80.11 ± 0.17 | 0.12 ± 0.01 | 9.72 × 10^7 | 1.11 × 10^8 | superior in vivo delivery efficiency | 1.70 |  | In vivo IVIS (liver) (mice; Table 2, IV, liver): 2.46 × 10^7; In vivo IVIS (spleen) (mice; Table 2, IV, spleen): 2.00 × 10^7 |
| CCCCCCOCOCCCCCCOC(=O)C(O)CN(CCCN1CCN(CCCN(CC(O)C(=O)OCCCCCCOCOCCCCCC)CC(O)C(=O)OCCCCCCOCOCCCCCC)CC1)CC(O)C(=O)OCCCCCCOCOCCCCCC (centres unmarked) [Compound L0192] |  |  |  | 5.56 × 10^10 | superior in vivo delivery efficiency | 1.68 |  | Particle size (nm) ([1]; Table 2, LNP formulation with mRNA, molar ratio 1.50:4.00:59.50:35.00, N/P 65): 112.83 ± 0.31 nm; Particle size (nm) ([1]; Table 2, LNP formulation with mRNA, molar ratio 1.77:14.07:49.16:35.00, N/P 54): 96.59 ± 0.78 nm; Particle size (nm) ([1]; Table 2, LNP formulation with mRNA, molar ratio 1.77:14.07:59.16:25.00, N/P 52): 113.33 ± 1.07 nm; PDI ([1]; Table 2, polydispersity value, molar ratio 1.50:4.00:59.50:35.00, N/P 65): 0.15 ± 0.01; PDI ([1]; Table 2, polydispersity value, molar ratio 1.77:14.07:49.16:35.00, N/P 54): 0.08 ± 0.02; PDI ([1]; Table 2, polydispersity value, molar ratio 1.77:14.07:59.16:25.00, N/P 52): 0.11 ± 0.02 |
| CCCCCCCCCCCCOC(=O)C(O)CN(CCN1CCN(CCN(CC(O)C(=O)OCCCCCCCCCCCC)CC(O)C(=O)OCCCCCCCCCCCC)CC1)CCN(CC(O)C(=O)OCCCCCCCCCCCC)CC(O)C(=O)OCCCCCCCCCCCC (centres unmarked) [Compound L0199] |  |  | 2.19 × 10^7 | 1.07 × 10^9 | superior in vivo delivery efficiency |  | 1.52 | Particle size (nm) ([1]; Table 2, LNP formulation with mRNA, molar ratio 1.40:11.15:38.95:48.50, N/P 40): 97.65 ± 0.59 nm; Particle size (nm) ([1]; Table 2, LNP formulation with mRNA, molar ratio 2.50:7.00:42.00:48.50, N/P 55): 130.00 ± 1.47 nm; PDI ([1]; Table 2, polydispersity value, molar ratio 1.40:11.15:38.95:48.50, N/P 40): 0.11 ± 0.01; PDI ([1]; Table 2, polydispersity value, molar ratio 2.50:7.00:42.00:48.50, N/P 55): 0.12 ± 0.01; PDI [1, 4]: 0.09 ± 0.02; Particle size (nm) [1, 4]: 123.50 ± 0.36 nm; PDI [1, 5]: 0.10 ± 0.02; Particle size (nm) [1, 5]: 147.57 ± 1.17 nm; In vivo IVIS (mice; Table 4, IM): 5.93 × 10^6; In vivo IVIS (mice; Table 4, IV): 9.35 × 10^8 |
| CCCCCCOCOCCCCCCOC(=O)C(O)CN(CCN1CCN(CCN(CC(O)C(=O)OCCCCCCOCOCCCCCC)CC(O)C(=O)OCCCCCCOCOCCCCCC)CC1)CCN(CC(O)C(=O)OCCCCCCOCOCCCCCC)CC(O)C(=O)OCCCCCCOCOCCCCCC (centres unmarked) [Compound L0200] |  |  | 3.08 × 10^5 |  | superior in vivo delivery efficiency |  | 1.61 | Particle size (nm) ([1]; Table 2, LNP formulation with mRNA, molar ratio 1.00:7.00:57.00:35.00, N/P 35): 106.93 ± 0.71 nm; Particle size (nm) ([1]; Table 2, LNP formulation with mRNA, molar ratio 1.40:11.15:38.95:48.50, N/P 65): 117.90 ± 0.36 nm; Particle size (nm) ([1]; Table 2, LNP formulation with mRNA, molar ratio 2.00:16.00:22.00:60.00, N/P 35): 104.50 ± 0.26 nm; PDI ([1]; Table 2, polydispersity value, molar ratio 1.00:7.00:57.00:35.00, N/P 35): 0.06 ± 0.01; PDI ([1]; Table 2, polydispersity value, molar ratio 1.40:11.15:38.95:48.50, N/P 65): 0.08 ± 0.02; PDI ([1]; Table 2, polydispersity value, molar ratio 2.00:16.00:22.00:60.00, N/P 35): 0.12 ± 0.01 |
| CCCCCCC(CCCCCC)C(=O)OCCCCCCOC(=O)C(O)CN(CCN1CCN(CCN(CC(O)C(=O)OCCCCCCOC(=O)C(CCCCCC)CCCCCC)CC(O)C(=O)OCCCCCCOC(=O)C(CCCCCC)CCCCCC)CC1)CCN(CC(O)C(=O)OCCCCCCOC(=O)C(CCCCCC)CCCCCC)CC(O)C(=O)OCCCCCCOC(=O)C(CCCCCC)CCCCCC (centres unmarked) [Compound L0203] | 126.73 ± 1.50 | 0.06 ± 0.01 | 8.01 × 10^7 | 3.89 × 10^8 | superior in vivo delivery efficiency | 1.72 |  |  |
| CCCCCCCCCCCOC(=O)CCCCCN(CCO)CCCCCCCC(=O)OC(CCCCCCCC)CCCCCCCC [SM-102, reference compound] | 81.71 ± 0.49 | 0.11 ± 0.01 |  | 1.40 × 10^9 |  | 1.64 |  |  |
